Source: US9023789B2, “Amylin analogs and pharmaceutical compositions thereof” (Novo Nordisk A/S, priority 2012, dated 2015)
pEC50, pIC50: −log10 of the molar value. In brackets after ≈: the same amount, converted by molar mass. Like-named read-outs stand apart in the source and are kept apart here. Numbered stars: 1 amine (or outer) side, 2 acyl side, 3 side chain; on linkers, the order of the positions; unused ones are H or OH. Bridge positions count the residues as written; N and C are the ends. Side chains are listed from the residue outwards. Peptide text beside a SMILES is read from it. * marks the point of attachment. C20 diacid = O=C(O)CCCCCCCCCCCCCCCCCCC(=O)*; γGlu = O=C(O)[C@H](CCC(=O)[*:2])N[*:1]

What was measured:
[1] = molecular target: T1, human amylin receptor (membranes from Amylin 3(a)/CRE-luc cells) (Homo sapiens, UniProt O60896+P30988); assay: ASSAY (V) binding to the human amylin receptor (SPA, 125I-rat amylin);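 further: competition binding of cell membranes (35 ng/µL) mixed with SPA beads in 384-well plates at 40 µL total volume, read by scintillation counting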
T1 construct: expressed in transfected cells
T1 sequence (P30988 25-474): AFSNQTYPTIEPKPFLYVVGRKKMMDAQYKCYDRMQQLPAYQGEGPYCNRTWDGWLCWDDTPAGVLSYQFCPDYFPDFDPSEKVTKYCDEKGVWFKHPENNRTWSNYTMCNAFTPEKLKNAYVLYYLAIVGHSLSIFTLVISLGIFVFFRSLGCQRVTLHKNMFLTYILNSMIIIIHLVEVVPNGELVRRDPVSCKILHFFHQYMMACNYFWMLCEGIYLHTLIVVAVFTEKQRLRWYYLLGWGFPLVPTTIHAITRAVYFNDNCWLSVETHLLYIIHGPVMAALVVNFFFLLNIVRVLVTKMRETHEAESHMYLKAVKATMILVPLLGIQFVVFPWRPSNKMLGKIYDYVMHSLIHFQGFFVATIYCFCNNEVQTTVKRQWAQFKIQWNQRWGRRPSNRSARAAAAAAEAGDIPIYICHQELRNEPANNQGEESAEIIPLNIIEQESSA
T1 sequence (O60896 24-148 partner): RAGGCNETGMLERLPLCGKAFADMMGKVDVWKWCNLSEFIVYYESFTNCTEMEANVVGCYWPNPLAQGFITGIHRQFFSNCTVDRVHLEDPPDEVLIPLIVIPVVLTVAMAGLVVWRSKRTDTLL

[2] = molecular target: T2, rat calcitonin receptor (Rattus norvegicus, UniProt P32214); assay: ASSAY (VIII) binding to the rat calcitonin receptor; details: Table 7, read-out: rCTR bind IC50
T2 construct: expressed in transfected cells; host or cells: BHK tk'ts 13 (transient, FuGENE 6), membranes
T2 sequence (P32214 25-479 isoform P32214-2 limits assumed): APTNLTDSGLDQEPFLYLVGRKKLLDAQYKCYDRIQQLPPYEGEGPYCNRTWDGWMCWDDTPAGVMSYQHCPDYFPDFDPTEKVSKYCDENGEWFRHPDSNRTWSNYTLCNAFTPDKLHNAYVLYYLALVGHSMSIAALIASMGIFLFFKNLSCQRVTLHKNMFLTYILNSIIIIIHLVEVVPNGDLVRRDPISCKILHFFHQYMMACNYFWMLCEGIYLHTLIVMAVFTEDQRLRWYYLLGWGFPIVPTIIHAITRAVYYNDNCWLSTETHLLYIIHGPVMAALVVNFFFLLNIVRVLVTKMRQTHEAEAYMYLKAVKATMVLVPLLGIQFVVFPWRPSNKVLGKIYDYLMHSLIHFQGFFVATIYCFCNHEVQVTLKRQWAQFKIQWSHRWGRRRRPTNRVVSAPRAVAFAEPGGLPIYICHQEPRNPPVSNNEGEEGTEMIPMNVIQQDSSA
Procedure, shortened: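 Receptor source: membranes from transiently transfected BHK tk′ts 13 cells expressing rat calcitonin receptor, collected roughly 48 hours after transfection.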

[3] = molecular target: T3, human amylin 3(a) receptor (human calcitonin receptor + RAMP-3) in BHK570 cells (Homo sapiens, UniProt O60896+P30988); assay: ASSAY (II)a functional assay, human amylin receptor (CRE luciferase); format: cell-based
T3 construct: expressed in transfected cells
Procedure, shortened: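 Functional agonism was measured by CRE-luciferase reporter luminescence in BHK cells bearing calcitonin receptor, or calcitonin receptor plus RAMP-3 as the amylin 3(a) receptor. Stimulation lasted 3 hours at 37° C.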

[4] = ASSAY (IV) determination of solubility; format: physicochemical
Procedure, shortened: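 UPLC read-out of polypeptide concentration after centrifugation. Samples: aqueous polypeptide stock ([…]) + 100 mM buffer 1:1, glycylglycine pH 3.0–5.0 or bistrispropane pH 6.0–8.0; 18 h, RT.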

[5] = molecular target: T4, rat amylin receptor (rat calcitonin receptor + rat RAMP 3) (Rattus norvegicus, UniProt P32214+Q9JJ73); assay: ASSAY (VI) binding to the rat amylin receptor; details: for pIC50: binding to rat amylin receptor, read-out: rAmylin-R bind IC50
T4 construct: expressed in transfected cells; host or cells: BHK tk'ts 13 (transient, FuGENE 6), membranes
T4 sequence (P32214 25-479 isoform P32214-2 limits assumed): T2 sequence (P32214 25-479 isoform P32214-2 limits assumed)
T4 sequence (Q9JJ73 23-147 partner): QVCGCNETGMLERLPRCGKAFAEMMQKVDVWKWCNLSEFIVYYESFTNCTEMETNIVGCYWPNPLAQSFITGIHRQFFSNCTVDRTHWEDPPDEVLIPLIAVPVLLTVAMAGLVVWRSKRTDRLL
Procedure, shortened: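 The cell-membrane assay assessed binding at the rat amylin receptor. BHK tk′ts 13 cells were transfected transiently with rat calcitonin receptor, with FuGENE® 6 (Roche) as the transfection reagent, used per the manufacturer's recommendations. Approximately 48 hours after transfection the cells were harvested, and membranes were prepared for measuring binding.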

[6] = Table 5, selectivity, hCTR bind IC50 / hAmylin-R bind IC50
[7] = Table 7, human binding selectivity, included for comparison
[8] = Table 7a (preferred compounds), human binding selectivity, included for comparison
[9] = hCTR funct. EC50 over hAmylin-R funct. EC50
[10] = human functional selectivity: hCTR funct. EC50 / hAmylin-R funct. EC50
[11] = bistrispropane buffer, pH 6.5, read-out: Solubility pH 6.5 Concentration
[12] = bistrispropane buffer, pH 7.5, read-out: Solubility pH 7.5 Concentration
[13] = bistrispropane buffer, pH 6.0, read-out: Solubility pH 6.0 Concentration
[14] = bistrispropane buffer, pH 7.0, read-out: Solubility pH 7.0 Concentration
[15] = glycylglycine buffer, pH 4.0, read-out: Solubility pH 4.0 Concentration
[16] = Table 7, rat binding selectivity, rCTR IC50 / rAmylin-R IC50
[17] = Table 7a (preferred compounds), rat binding selectivity, rCTR IC50 / rAmylin-R IC50

| Structure (SMILES) | Ratio hCT/hAmylin binding [1, 6] | Ratio hCT/hAmylin binding [1, 7] | Ratio hCT/hAmylin binding [1, 8] | pIC50 [2] | Ratio hCT/hAmylin funct. [3, 9] | Ratio hCT/hAmylin funct. [3, 10] | solubility at 18 h [4, 11] [µM] | solubility at 18 h [4, 12] [µM] | solubility at 18 h [4, 13] [µM] | solubility at 18 h [4, 14] [µM] | solubility at 18 h [4, 15] [µM] | pIC50 ([5]; Table 7) | Ratio rCT/rAmylin binding [5, 16] | Ratio rCT/rAmylin binding [5, 17] | further results |
| --- | --- | --- | --- | --- | --- | --- | --- | --- | --- | --- | --- | --- | --- | --- | --- |
| CC[C@H](C)[C@H](NC(=O)[C@H](C)NC(=O)CNC(=O)[C@H](Cc1ccccc1)NC(=O)[C@H](CC(N)=O)NC(=O)[C@@H]1CCCN1C(=O)[C@H](CO)NC(=O)[C@H](CO)NC(=O)[C@H](Cc1c[nH]cn1)NC(=O)[C@H](CCCNC(=N)N)NC(=O)[C@H](CC(C)C)NC(=O)[C@H](Cc1ccccc1)NC(=O)[C@H](CC(N)=O)NC(=O)[C@H](C)NC(=O)[C@H](CC(C)C)NC(=O)[C@H](CCCNC(=N)N)NC(=O)[C@H](CCC(N)=O)NC(=O)[C@@H](NC(=O)[C@H](C)NC(=O)[C@@H]1CSSC[C@H](NC(=O)[C@@H](N)CCCCNC(=O)COCCOCCNC(=O)CC[C@H](NC(=O)CCCCCCCCCCCCCCCCCCC(=O)O)C(=O)O)C(=O)N[C@@H](CC(N)=O)C(=O)N[C@@H]([C@@H](C)O)C(=O)N[C@@H](C)C(=O)N[C@@H]([C@@H](C)O)C(=O)N1)[C@@H](C)O)C(=O)N1CCC[C@H]1C(=O)N[C@@H](CO)C(=O)N[C@@H](CO)C(=O)N[C@H](C(=O)N[C@@H](CC(N)=O)C(=O)N[C@H](C(=O)NCC(=O)N1CCC[C@H]1C(=O)N[C@@H](CC(N)=O)C(=O)N[C@H](C(=O)N[C@@H](Cc1ccc(O)cc1)C(N)=O)[C@@H](C)O)C(C)C)[C@@H](C)O [Example 50] | 36.0 | 36.0 | 36.0 | 8.25 | 17.4 | 17.4 | ≥ 200 | ≥ 200 | ≥ 200 | ≥ 200 | ≥ 200 | 10.16 | 81.7 | 81.7 | pIC50 ([1]; Table 4, read-out: hAmylin-R bind IC50): 10.42; Ratio hCT/hAmylin binding ([1]; Table 5a, selectivity, hCTR bind IC50 / hAmylin-R bind IC50): 36.0; Ratio hCT/hAmylin binding ([1]; Table 5b, selectivity, hCTR bind IC50 / hAmylin-R bind IC50): 36.0; Ratio hCT/hAmylin binding ([1]; Table 5c, selectivity, hCTR bind IC50 / hAmylin-R bind IC50): 36.0; Ratio hCT/hAmylin binding ([1]; ratio of human calcitonin receptor binding IC50 to human amylin receptor binding IC50): 36.0; Ratio hCT/hAmylin funct. ([3]; hCTR funct. EC50 divided by hAmylin-R funct. EC50): 17.4; pEC50 ([3]; human amylin receptor functional potency, assay (II), read-out: hAmylin-R funct. EC50): 10.42; solubility at 18 h ([4]; bistrispropane buffer, pH 8.0, read-out: Solubility pH 8.0 Concentration): ≥ 200 µM; solubility at 18 h ([4]; glycylglycine buffer, pH 3.0, read-out: Solubility pH 3.0 Concentration): ≥ 200 µM; solubility at 18 h ([4]; glycylglycine buffer, pH 5.0, read-out: Solubility pH 5.0 Concentration): ≥ 200 µM; Ratio rCT/rAmylin binding ([5]; ratio of rCTR bind IC50 to rAmylin-R bind IC50): 81.7 |
| CC[C@H](C)[C@H](NC(=O)[C@H](C)NC(=O)CNC(=O)[C@@H]1CCCN1C(=O)[C@H](CC(N)=O)NC(=O)[C@H](CC(N)=O)NC(=O)[C@H](CO)NC(=O)[C@H](CO)NC(=O)[C@H](Cc1c[nH]cn1)NC(=O)[C@H](CCCNC(=N)N)NC(=O)[C@H](CC(C)C)NC(=O)[C@H](Cc1ccccc1)NC(=O)[C@H](CCC(=O)O)NC(=O)[C@H](C)NC(=O)[C@H](CC(C)C)NC(=O)[C@H](CCCNC(=N)N)NC(=O)[C@H](CCC(N)=O)NC(=O)[C@@H](NC(=O)[C@H](C)NC(=O)[C@@H]1CSSC[C@H](NC(=O)[C@@H](N)CCCCNC(=O)CC[C@H](NC(=O)CC[C@H](NC(=O)CCCCCCCCCCCCCCCCCCC(=O)O)C(=O)O)C(=O)O)C(=O)N[C@@H](CC(N)=O)C(=O)N[C@@H]([C@@H](C)O)C(=O)N[C@@H](C)C(=O)N[C@@H]([C@@H](C)O)C(=O)N1)[C@@H](C)O)C(=O)N[C@@H](CC(C)C)C(=O)N[C@@H](CO)C(=O)N[C@@H](CO)C(=O)N[C@H](C(=O)N[C@@H](CC(N)=O)C(=O)N[C@H](C(=O)NCC(=O)N1CCC[C@H]1C(=O)N[C@@H](CCC(=O)O)C(=O)N[C@H](C(=O)N[C@@H](Cc1ccc(O)cc1)C(N)=O)[C@@H](C)O)C(C)C)[C@@H](C)O [Example 126] (H-K([γGlu-γGlu-C20 diacid])CNTATCATQRLAEFLRHSSNNPGAILSSTNVGPETY-NH2; disulfide 2-7 (inferred); N-terminus assumed) | 7.8 | 7.8 | 7.8 | 7.06 | 17.3 | 17.3 | 131 (≈ 594 µg/mL) | ≥ 200 | 64 (≈ 290 µg/mL) | 198 (≈ 898 µg/mL) | 7 (≈ 31.7 µg/mL) | 9.18 | 131.7 | 131.7 | – |
